# Measurements taken from US20170274083A1, “NASAL COMPOSITION HAVING ANTI-VIRAL PROPERTIES” (SOFIBEL S.A.S.-A COMPANY ULTIMATELY OWNED BY CHURCH & …, priority 2014, published 2017).
# Test system: HRV-A16
# Experiment: Anti-viral effect: inhibition of HRV-A16 replication (viral RNA)
# Assay type: cell-based, human rhinovirus
# Details: applied 1 h before infection; change in viral RNA; fully differentiated human airway epithelial cells
# Method: The example 1 composition is tested according to the test of evaluation of the potential activity against HRV-A16 (a rhinovirus responsible for colds) on fully differentiated human airway epithelial cells culture. The compositions are first applied before infection for one hour and the replication is carried out for 4 hours. 3 rinsing steps with the formulations are carried out. The remaining is collected and the RNA is dosed after cell lysis. The same collecting step is carried out 24 hours after and the same dosing step is carried out. The percentage expressed the changes in viral RNA, resulting in the % of inhibition of HRV-A16 replication, leading to the anti-viral efficacy. The tested composition is tested against rupintrivir (a known antiviral compound, providing an almost complete response).
smiles,measurement,value
"CCOC(=O)/C=C/[C@H](C[C@@H]1CCNC1=O)NC(=O)[C@@H](CC(=O)[C@@H](NC(=O)c1cc(C)on1)C(C)C)Cc1ccc(F)cc1 [Rupintrivir, rupintrivir]",Inhibition (%) of HRV-A16 replication,99.62%
